Experimental data from ChEMBL document CHEMBL6109078, “Pyrylium derivatives as outer membrane permeabilizers against MDR gram-negative bacteria via multi-target mode of action” (Eur J Med Chem, 2025).
Bridge positions count the residues as written; N and C are the ends. Square brackets hold non-standard residues; d marks the D form. Peptide text beside a SMILES is read from it. * marks the point of attachment. X1 = CC[C@H](C)CCCCC(=O)*; Dab = NCC[C@H](N)C(=O)O

What was measured:
Acinetobacter baumannii [1] = experiment: Antibacterial activity against multi-drug resistant Acinetobacter baumannii clinical isolate 2 assessed as inhibition of bacterial growth by CLSI protocol based method; type: functional
Acinetobacter baumannii [2] = experiment: Antibacterial activity against Acinetobacter baumannii ATCC 19606 assessed as inhibition of bacterial growth by CLSI protocol based method; type: functional
Escherichia coli [3] = experiment: Antibacterial activity against multi-drug resistant Escherichia coli clinical isolate 1 assessed as inhibition of bacterial growth by CLSI protocol based method; type: functional
Acinetobacter baumannii [4] = experiment: Antibacterial activity against multi-drug resistant Acinetobacter baumannii clinical isolate 4 assessed as inhibition of bacterial growth by CLSI protocol based method; type: functional
Acinetobacter baumannii [5] = experiment: Antibacterial activity against multi-drug resistant Acinetobacter baumannii clinical isolate 1 assessed as inhibition of bacterial growth by CLSI protocol based method; type: functional
Escherichia coli [6] = experiment: Antibacterial activity against ESBL positive Escherichia coli ATCC 35218 assessed as inhibition of bacterial growth by CLSI protocol based method; type: functional
Pseudomonas aeruginosa [7] = experiment: Antibacterial activity Pseudomonas aeruginosa ATCC 27853 assessed as inhibition of bacterial growth by CLSI protocol based method; type: functional
Acinetobacter baumannii [8] = experiment: Antibacterial activity against Acinetobacter baumannii ATCC 19606 infected in Galleria mellonella larvae assessed as survival rate of larvae at 1 microg/ml measured after 96 hrs relative to control; type: functional
Acinetobacter baumannii [9] = experiment: Antibacterial activity against multi-drug resistant Acinetobacter baumannii clinical isolate 43 assessed as inhibition of bacterial growth by CLSI protocol based method; type: functional
Acinetobacter baumannii [10] = experiment: Antibacterial activity against multi-drug resistant Acinetobacter baumannii clinical isolate 10 assessed as inhibition of bacterial growth by CLSI protocol based method; type: functional
Acinetobacter baumannii [11] = experiment: Antibacterial activity against multi-drug resistant Acinetobacter baumannii clinical isolate 51 assessed as inhibition of bacterial growth by CLSI protocol based method; type: functional
Escherichia coli [12] = experiment: Antibacterial activity against Escherichia coli CG-4 expressing MCR-1 and NDM-1 assessed as inhibition of bacterial growth by CLSI protocol based method; type: functional
Acinetobacter baumannii [13] = experiment: Antibacterial activity against multi-drug resistant Acinetobacter baumannii clinical isolate 14 assessed as inhibition of bacterial growth by CLSI protocol based method; type: functional
Klebsiella pneumoniae [14] = experiment: Antibacterial activity against Klebsiella pneumoniae ATCC 700603 assessed as inhibition of bacterial growth by CLSI protocol based method; type: functional
Escherichia coli [15] = experiment: Antibacterial activity against Escherichia coli ATCC 25922 assessed as inhibition of bacterial growth by CLSI protocol based method; type: functional
Escherichia coli [16] = experiment: Antibacterial activity against Escherichia coli ATCC 25922 infected in Galleria mellonella larvae assessed as survival rate of larvae at 1 microg/ml relative to control; type: functional
Acinetobacter baumannii [17] = experiment: Antibacterial activity against multi-drug resistant Acinetobacter baumannii clinical isolate 5 assessed as inhibition of bacterial growth by CLSI protocol based method; type: functional
Acinetobacter baumannii [18] = experiment: Synergistic antibacterial activity against Acinetobacter baumannii ATCC 19606 assessed as fractional inhibitory concentration index in presence of polymyxin B by checkerboard assay; type: functional
Escherichia coli [19] = experiment: Synergistic antibacterial activity against multi-drug resistant Escherichia coli clinical isolate 1 assessed as inhibition of bacterial growth in presence of polymyxin B by checkerboard assay; type: functional
Acinetobacter baumannii [20] = experiment: Synergistic antibacterial activity against multi-drug resistant Acinetobacter baumannii clinical isolate 14 assessed as inhibition of bacterial growth in presence of polymyxin B by checkerboard assay; type: functional
Acinetobacter baumannii [21] = experiment: Synergistic antibacterial activity against multi-drug resistant Acinetobacter baumannii clinical isolate 43 assessed as fractional inhibitory concentration index in presence of polymyxin B by checkerboard assay; type: functional
Acinetobacter baumannii [22] = experiment: Synergistic antibacterial activity against multi-drug resistant Acinetobacter baumannii clinical isolate 1 assessed as inhibition of bacterial growth in presence of polymyxin B by checkerboard assay; type: functional
Escherichia coli [23] = experiment: Synergistic antibacterial activity against Escherichia coli ATCC 25922 assessed as fractional inhibitory concentration index in presence of polymyxin B by checkerboard assay; type: functional
Escherichia coli [24] = experiment: Synergistic antibacterial activity against Escherichia coli CG-4 expressing MCR-1 and NDM-1 assessed as inhibition of bacterial growth in presence of polymyxin B by checkerboard assay; type: functional
Acinetobacter baumannii [25] = experiment: Synergistic antibacterial activity against multi-drug resistant Acinetobacter baumannii clinical isolate 1 assessed as fractional inhibitory concentration index in presence of polymyxin B by checkerboard assay; type: functional
Acinetobacter baumannii [26] = experiment: Synergistic antibacterial activity against multi-drug resistant Acinetobacter baumannii clinical isolate 14 assessed as inhibition of bacterial growth by measuring polymyxin B MIC by checkerboard assay; type: functional
[27] = Binding affinity to His-tagged LptC (unknown origin) extracted from Escherichia coli BL21 (DE3) cells assessed as dissociation constant by BLI analysis; set-up: species or system Bacteria
Acinetobacter baumannii [28] = experiment: Synergistic antibacterial activity against Acinetobacter baumannii ATCC 19606 assessed as inhibition of bacterial growth in presence of polymyxin B by checkerboard assay; type: functional
[29] = Binding affinity to His-tagged LptA (unknown origin) extracted from Escherichia coli BL21 (DE3) cells assessed as dissociation constant by BLI analysis; set-up: species or system Bacteria
Acinetobacter baumannii [30] = experiment: Synergistic antibacterial activity against multi-drug resistant Acinetobacter baumannii clinical isolate 43 assessed as inhibition of bacterial growth by measuring polymyxin B MIC by checkerboard assay; type: functional
Escherichia coli [31] = experiment: Synergistic antibacterial activity against Escherichia coli ATCC 35218 assessed as inhibition of bacterial growth in presence of polymyxin B by checkerboard assay; type: functional
Escherichia coli [32] = experiment: Synergistic antibacterial activity against Escherichia coli CG-4 expressing MCR-1 and NDM-1 assessed as inhibition of bacterial growth by measuring polymyxin B MIC by checkerboard assay; type: functional
Escherichia coli [33] = experiment: Synergistic antibacterial activity against Escherichia coli ATCC 25922 assessed as inhibition of bacterial growth in presence of polymyxin B by checkerboard assay; type: functional
Escherichia coli [34] = experiment: Synergistic antibacterial activity against Escherichia coli CG-4 expressing MCR-1 and NDM-1 assessed as fractional inhibitory concentration index in presence of polymyxin B by checkerboard assay; type: functional
Acinetobacter baumannii [35] = experiment: Synergistic antibacterial activity against multi-drug resistant Acinetobacter baumannii clinical isolate 5 assessed as inhibition of bacterial growth in presence of polymyxin B by checkerboard assay; type: functional
Escherichia coli [36] = experiment: Synergistic antibacterial activity against Escherichia coli ATCC 35218 assessed as fractional inhibitory concentration index in presence of polymyxin B by checkerboard assay; type: functional
Escherichia coli [37] = experiment: Synergistic antibacterial activity against Escherichia coli ATCC 25922 assessed as inhibition of bacterial growth by measuring polymyxin B MIC by checkerboard assay; type: functional
Escherichia coli [38] = experiment: Synergistic antibacterial activity against multi-drug resistant Escherichia coli clinical isolate 1 assessed as fractional inhibitory concentration index in presence of polymyxin B by checkerboard assay; type: functional
Escherichia coli [39] = experiment: Synergistic antibacterial activity against Escherichia coli ATCC 35218 assessed as inhibition of bacterial growth by measuring polymyxin B MIC by checkerboard assay; type: functional; details: Escherichia coli, ATCC 35218; read-out: MIC
Acinetobacter baumannii [40] = experiment: Synergistic antibacterial activity against Acinetobacter baumannii ATCC 19606 assessed as inhibition of bacterial growth by measuring polymyxin B MIC by checkerboard assay; type: functional
Acinetobacter baumannii [41] = experiment: Synergistic antibacterial activity against multi-drug resistant Acinetobacter baumannii clinical isolate 1 assessed as inhibition of bacterial growth by measuring polymyxin B MIC by checkerboard assay; type: functional
Pseudomonas aeruginosa [42] = experiment: Antibacterial activity Pseudomonas aeruginosa PAO1 assessed as inhibition of bacterial growth by CLSI protocol based method; type: functional
Acinetobacter baumannii [43] = experiment: Synergistic antibacterial activity against multi-drug resistant Acinetobacter baumannii clinical isolate 43 assessed as inhibition of bacterial growth in presence of polymyxin B by checkerboard assay; type: functional
Acinetobacter baumannii [44] = experiment: Synergistic antibacterial activity against multi-drug resistant Acinetobacter baumannii clinical isolate 5 assessed as inhibition of bacterial growth by measuring polymyxin B MIC by checkerboard assay; type: functional
Escherichia coli [45] = experiment: Synergistic antibacterial activity against multi-drug resistant Escherichia coli clinical isolate 1 assessed as inhibition of bacterial growth by measuring polymyxin B MIC by checkerboard assay; type: functional
Klebsiella pneumoniae [46] = experiment: Antibacterial activity against Klebsiella pneumoniae BAA ATCC 1706 assessed as inhibition of bacterial growth by CLSI protocol based method; type: functional

`CC(C)CCCCC(=O)N[C@@H](CCN)C(=O)N[C@H](C(=O)N[C@@H](CCN)C(=O)N[C@H]1CCNC(=O)[C@H]([C@@H](C)O)NC(=O)[C@H](CCN)NC(=O)[C@H](CCN)NC(=O)[C@H](CC(C)C)NC(=O)[C@@H](Cc2ccccc2)NC(=O)[C@H](CCN)NC1=O)[C@@H](C)O.CC[C@H](C)CCCCC(=O)N[C@@H](CCN)C(=O)N[C@H](C(=O)N[C@@H](CCN)C(=O)N[C@H]1CCNC(=O)[C@H]([C@@H](C)O)NC(=O)[C@H](CCN)NC(=O)[C@H](CCN)NC(=O)[C@H](CC(C)C)NC(=O)[C@@H](Cc2ccccc2)NC(=O)[C@H](CCN)NC1=O)[C@@H](C)O` (X1-[Dab]T[Dab][Dab][Dab][dF]L[Dab][Dab]T; lactam 4-C) showed an MIC (Acinetobacter baumannii [1]) of 0.39 µg/mL, an MIC (Acinetobacter baumannii [2]) of 0.05 µg/mL and an MIC (Escherichia coli [3]) of 12.5 µg/mL. For the same compound, the MIC (Acinetobacter baumannii [4]) was 0.39 µg/mL, the MIC (Acinetobacter baumannii [5]) was greater than 100 µg/mL and the MIC (Escherichia coli [6]) was 0.1 µg/mL. The MIC (Pseudomonas aeruginosa [7]) was 6.25 µg/mL, the survival at 1 µg/mL (Acinetobacter baumannii [8]) was 20% and the MIC (Acinetobacter baumannii [9]) was greater than 100 µg/mL. For the same compound, the MIC (Acinetobacter baumannii [10]) was 0.05 µg/mL, the MIC (Acinetobacter baumannii [11]) was 0.78 µg/mL and the MIC (Escherichia coli [12]) was 6.25 µg/mL. The MIC (Acinetobacter baumannii [13]) was 0.39 µg/mL, the MIC (Klebsiella pneumoniae [14]) was 0.2 µg/mL and the MIC (Escherichia coli [15]) was 0.05 µg/mL. It also gave a survival at 1 µg/mL (Escherichia coli [16]) of 40% and an MIC (Acinetobacter baumannii [17]) of 0.05 µg/mL.
For `CN(C)c1ccc(/C=C/c2cc(C(C)(C)C)[o+]c(C(C)(C)C)c2)cc1.O=S(=O)([O-])C(F)(F)F`, the “fractional inhibitory concentration index (FICI)” value (Acinetobacter baumannii [18]) was 0.188, the MIC (Escherichia coli [19]) was 3.13 µg/mL and the MIC (Acinetobacter baumannii [1]) was 25 µg/mL. The MIC (Acinetobacter baumannii [20]) was 6.25 µg/mL, the “fractional inhibitory concentration index (FICI)” value (Acinetobacter baumannii [21]) was less than 0.25 and the MIC (Acinetobacter baumannii [22]) was 3.13 µg/mL. The “fractional inhibitory concentration index (FICI)” value (Escherichia coli [23]) was 0.266, the MIC (Escherichia coli [24]) was 3.13 µg/mL and the “fractional inhibitory concentration index (FICI)” value (Acinetobacter baumannii [25]) was less than 0.032. The MIC (Acinetobacter baumannii [26]) was 0.006 µg/mL, the Kd [27] was 17 µM and the MIC (Acinetobacter baumannii [28]) was 1.56 µg/mL. For the same compound, the Kd [29] was 160 µM, the MIC (Acinetobacter baumannii [30]) was 1 10^-4 ug/ml and the MIC (Acinetobacter baumannii [2]) was 12.5 µg/mL. For the same compound, the MIC (Escherichia coli [3]) was 100 µg/mL, the MIC (Acinetobacter baumannii [4]) was 25 µg/mL and the MIC (Escherichia coli [31]) was 1.56 µg/mL. It also gave an MIC (Escherichia coli [32]) of 0.39 µg/mL, an MIC (Acinetobacter baumannii [5]) of 100 µg/mL and an MIC (Escherichia coli [6]) of 12.5 µg/mL. For the same compound, the MIC (Escherichia coli [33]) was 6.25 µg/mL, the MIC (Pseudomonas aeruginosa [7]) was greater than 100 µg/mL and the “fractional inhibitory concentration index (FICI)” value (Escherichia coli [34]) was 0.188. For the same compound, the MIC (Acinetobacter baumannii [35]) was 12.5 µg/mL, the “fractional inhibitory concentration index (FICI)” value (Escherichia coli [36]) was 0.375 and the MIC (Escherichia coli [37]) was 7.8 10^-4 ug/ml. For the same compound, the MIC (Acinetobacter baumannii [9]) was 50 µg/mL, the MIC (Acinetobacter baumannii [10]) was 25 µg/mL and the MIC (Acinetobacter baumannii [11]) was 50 µg/mL. The “fractional inhibitory concentration index (FICI)” value (Escherichia coli [38]) was 0.047, the MIC (Escherichia coli [39]) was 0.25 µg/mL and the MIC (Acinetobacter baumannii [40]) was 0.006 µg/mL. The MIC (Escherichia coli [12]) was 25 µg/mL, the MIC (Acinetobacter baumannii [13]) was 25 µg/mL and the MIC (Klebsiella pneumoniae [14]) was greater than 100 µg/mL. For the same compound, the MIC (Acinetobacter baumannii [41]) was 0.05 µg/mL, the MIC (Pseudomonas aeruginosa [42]) was greater than 100 µg/mL and the MIC (Escherichia coli [15]) was 12.5 µg/mL. For the same compound, the MIC (Acinetobacter baumannii [43]) was 12.5 µg/mL, the MIC (Acinetobacter baumannii [44]) was 0.006 µg/mL and the MIC (Acinetobacter baumannii [17]) was 50 µg/mL. For the same compound, the MIC (Escherichia coli [45]) was 0.2 µg/mL and the MIC (Klebsiella pneumoniae [46]) was greater than 100 µg/mL.
